From ChEMBL document CHEMBL5137108, “Calofolic Acid-A from Calophyllum scriblitifolium Bark Has Vasorelaxant Activity via Indirect PKA Activation Caused by PI-3 Kinase Inhibition in Rat Vascular Smooth Muscle Cells” (J Nat Prod, 2022)
Activity calls are given as the source filed them. The rule behind the calls is not given here.

Tests used:
VSMC [1] = assay: Inhibition of isoproterenol-induced PKA substrate phosphorylation in Wistar rat VSMCs at 10 uM preincubated for 60 mins followed by ISO stimulation and measured upto 30 mins by Western blot analysis; format: cell-based; settings: time 90.0 min
VSMC [2] = assay: Cytotoxicity against Wistar rat VSMCs assessed as reduction in cell viability at 50 uM incubated for 48 hrs by MTT assay; format: toxicity, cell-based
VSMC [3] = assay: Inhibition of phenylephrine-induced MLC phosphorylation at Ser19 residue in Wistar rat VSMCs at 50 uM preincubated for 60 mins followed by phenylephrine stimulation and measured upto 30 mins by Western blot analysis; format: cell-based; settings: time 90.0 min
[4] = target: T1, Protein phosphatase 1 regulatory subunit 12A (Rattus norvegicus) (UniProt Q10728); assay: Activation of MYTP1 phosphorylation at Ser668 residue in Wistar rat VSMCs at 50 uM incubated for 60 mins by Western blot analysis; format: cell-based; settings: VSMC, filed as activator
T1 sequence (whole entry): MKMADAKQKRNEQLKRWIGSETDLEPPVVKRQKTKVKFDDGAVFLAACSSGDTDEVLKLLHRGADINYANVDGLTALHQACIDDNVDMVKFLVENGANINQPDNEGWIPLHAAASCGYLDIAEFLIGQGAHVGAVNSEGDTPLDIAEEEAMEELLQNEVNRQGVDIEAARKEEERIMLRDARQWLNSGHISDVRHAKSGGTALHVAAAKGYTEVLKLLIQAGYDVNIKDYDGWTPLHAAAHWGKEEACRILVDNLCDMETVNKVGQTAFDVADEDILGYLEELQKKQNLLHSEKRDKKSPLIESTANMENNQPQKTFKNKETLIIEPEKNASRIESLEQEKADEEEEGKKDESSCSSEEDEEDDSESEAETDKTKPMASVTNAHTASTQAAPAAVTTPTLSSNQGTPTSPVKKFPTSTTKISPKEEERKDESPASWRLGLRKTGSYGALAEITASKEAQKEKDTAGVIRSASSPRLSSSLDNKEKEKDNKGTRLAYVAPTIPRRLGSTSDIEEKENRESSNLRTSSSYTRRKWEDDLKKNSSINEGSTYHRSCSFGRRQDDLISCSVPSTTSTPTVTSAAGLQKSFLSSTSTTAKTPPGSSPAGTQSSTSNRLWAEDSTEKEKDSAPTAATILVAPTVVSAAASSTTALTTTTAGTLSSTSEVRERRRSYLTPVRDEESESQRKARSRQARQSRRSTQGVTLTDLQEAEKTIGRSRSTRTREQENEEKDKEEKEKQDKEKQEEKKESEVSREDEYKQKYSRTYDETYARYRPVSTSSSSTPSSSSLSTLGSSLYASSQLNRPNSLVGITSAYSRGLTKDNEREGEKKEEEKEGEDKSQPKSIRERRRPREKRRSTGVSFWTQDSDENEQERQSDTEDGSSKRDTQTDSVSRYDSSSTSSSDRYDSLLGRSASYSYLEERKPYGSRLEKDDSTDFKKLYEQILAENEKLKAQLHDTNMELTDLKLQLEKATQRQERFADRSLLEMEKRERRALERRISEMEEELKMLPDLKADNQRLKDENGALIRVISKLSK

[5] = target: T1, Protein phosphatase 1 regulatory subunit 12A (Rattus norvegicus); assay: Activation of MYTP1 phosphorylation at Ser668 residue in phenylephrine-stimulated Wistar rat VSMCs at 50 uM preincubated for 60 mins followed by phenylephrine stimulation and measured upto 30 mins by Western blot analysis; format: cell-based; settings: VSMC, filed as activator, time 90.0 min
[6] = target: T1, Protein phosphatase 1 regulatory subunit 12A (Rattus norvegicus); assay: Activation of MYTP1 phosphorylation at Ser695 residue in phenylephrine-stimulated Wistar rat VSMCs at 50 uM preincubated for 60 mins followed by phenylephrine stimulation and measured upto 30 mins by Western blot analysis; format: cell-based; settings: VSMC, filed as activator, time 90.0 min
VSMC [7] = assay: Activation of HSP20 phosphorylation in isoproterenol-induced Wistar rat VSMCs at 50 uM preincubated for 60 mins followed by ISO stimulation and measured upto 30 mins by Western blot analysis; format: cell-based; settings: filed as activator, time 90.0 min
VSMC [8] = assay: Activation of PKA substrate phosphorylation in Wistar rat VSMCs at 50 uM incubated for 60 mins by Western blot analysis; format: cell-based; settings: filed as activator
VSMC [9] = assay: Activation of HSP90 phosphorylation in Wistar rat VSMCs at 50 uM incubated for 60 mins by Western blot analysis; format: cell-based; settings: filed as activator
VSMC [10] = assay: Activation of PKA substrate phosphorylation in isoproterenol-induced Wistar rat VSMCs at 50 uM preincubated for 60 mins followed by ISO stimulation and measured upto 30 mins by Western blot analysis; format: cell-based; settings: filed as activator, time 90.0 min
VSMC [11] = assay: Activation of PKA substrate phosphorylation in Wistar rat VSMCs incubated for 60 mins by Western blot analysis; format: cell-based; settings: filed as activator, dose 5-50 µM, DDE = dose-dependent effect
B16-F10 = assay: Activation of PKA substrate phosphorylation in mouse B16-F10 cells incubated for 60 mins by Western blot analysis; format: cell-based; settings: filed as activator
[12] = target: cAMP-dependent protein kinase (PKA) (Homo sapiens) (UniProt P22694+P17612+P22612); assay: Activation of PKA substrate phosphorylation in HEK293 cells incubated for 60 mins by Western blot analysis; format: cell-based; settings: filed as activator
VSMC [13] = assay: Activation of PKA substrate phosphorylation in isoproterenol-induced Wistar rat VSMCs at 10 uM preincubated for 60 mins followed by isoproterenol stimulation and measured upto 20 mins by Western blot analysis; format: cell-based; settings: filed as activator, time 80.0 min
VSMC [14] = assay: Activation of PKA substrate phosphorylation in Wistar rat VSMCs at 10 uM incubated for 60 mins in the presence of LY294002 by Western blot analysis; format: cell-based; settings: filed as activator
VSMC [15] = assay: Inhibition of isoproterenol-induced AKT phosphorylation at Thr308 residue in Wistar rat VSMCs at 50 uM preincubated for 60 mins followed by ISO stimulation and measured upto 30 mins by Western blot analysis; format: cell-based; settings: time 90.0 min
VSMC [16] = assay: Inhibition of isoproterenol-induced AKT phosphorylation at Ser473 residue in Wistar rat VSMCs at 50 uM preincubated for 60 mins followed by ISO stimulation and measured upto 30 mins by Western blot analysis; format: cell-based; settings: time 90.0 min
[17] = Inhibition of recombinant human full length PI3K p110alpha/[…] alpha activity assessed as PIP3 generation using PI(4,5)P2 (PIP2) as substrate incubated for 3 hrs by competitive binding based colorimetric analysis
VSMC [18] = assay: Activation of PKA in isoproterenol-induced Wistar rat VSMCs assessed as fold increase in intracellular cAMP concentration at 50 uM measured 20 mins after ISO stimulation relative to isoproterenol; format: cell-based; settings: filed as activator
VSMC [19] = assay: Activation of PKA substrate phosphorylation in Wistar rat VSMCs at 100 uM incubated for 60 mins by Western blot analysis; format: cell-based; settings: filed as activator
VSMC [20] = assay: Activation of PKA substrate phosphorylation in isoproterenol-induced Wistar rat VSMCs at 100 uM preincubated for 60 mins followed by ISO stimulation and measured upto 30 mins by Western blot analysis; format: cell-based; settings: filed as activator, time 90.0 min
VSMC [21] = assay: Activation of PKA in isoproterenol-induced Wistar rat VSMCs assessed as increase in intracellular cAMP concentration at 100 uM measured 20 mins after ISO stimulation; format: cell-based; settings: filed as activator
VSMC [22] = assay: Activation of PKA substrate phosphorylation in Wistar rat VSMCs at 10 uM incubated for 60 mins in the presence of IBMX by Western blot analysis; format: cell-based; settings: filed as activator
VSMC [23] = assay: Inhibition of AKT phosphorylation at Ser473 residue in Wistar rat VSMCs at 10 uM measured upto 60 mins by Western blot analysis; format: cell-based
VSMC [24] = assay: Activation of PKA substrate phosphorylation in Wistar rat VSMCs at 10 uM incubated for 60 mins by Western blot analysis; format: cell-based; settings: filed as activator
VSMC [25] = assay: Activation of PKA in isoproterenol-induced Wistar rat VSMCs assessed as fold increase in intracellular cAMP concentration at 10 uM measured 20 mins after ISO stimulation; format: cell-based; settings: filed as activator

With `O=S(=O)(NCCNC/C=C/c1ccc(Br)cc1)c1cccc2cnccc12` the inhibition (VSMC [1]) was “Active”.

For `CC[C@H](CC(=O)O)c1c2c(c(O)c3c1O[C@H](C)[C@H](C)C3=O)C=CC(C)(C)O2`, the Activity (VSMC [2]) was 80%, the inhibition (VSMC [3]) was “Active” and the Activity [4] was “Active”. The Activity [5] was “Active”, the Activity [6] was “Active” and the Activity (VSMC [7]) was “Active”. The Activity (VSMC [8]) was “Active”, the Activity (VSMC [9]) was “Active” and the Activity (VSMC [10]) was “Active”. The Activity (VSMC [11]) was “Dde”, the Activity (B16-F10) was “Active” and the Activity [12] was “Active”. The Activity (VSMC [13]) was “Active”, the Activity (VSMC [14]) was “Active” and the inhibition (VSMC [15]) was “Active”. For the same compound, the inhibition (VSMC [16]) was “Active”, the IC50 [17] was 6 µM and the fold change (FC) (VSMC [18]) was 2.5.

With `CC(C)Cn1c(=O)n(C)c(=O)c2nc[nH]c21` the Activity (VSMC [19]) was “Active”, the Activity (VSMC [20]) was “Active” and the Activity (VSMC [13]) was “Active”. The Activity (VSMC [21]) was “Active”.

For `O=c1cc(N2CCOCC2)oc2c(-c3ccccc3)cccc12`, the Activity (VSMC [22]) was “Active”, the Activity (VSMC [13]) was “Active” and the inhibition (VSMC [23]) was “Active”. For the same compound, the Activity (VSMC [24]) was “Active” and the fold change (FC) (VSMC [25]) was 2.
